Experimental data as given in publication PMC3605511, “Tumor P-Glycoprotein Correlates with Efficacy of PF-3758309 in in vitro and in vivo Models of Colorectal Cancer” (Frontiers in Pharmacology, 2013).

Experiments:
SW1116 = assay: Cell proliferation assay, SW1116; assay type: cell-based; conditions: Homo sapiens, SW 1116; SW1116, 72 h, SRB assay
Method: (§1) Cytotoxic/proliferation effects were determined using the sulforhodamine B (SRB) assay (Skehan et al., [1990]) or by resazurin. Briefly, cells in logarithmic growth phase were transferred to 96 well flat bottom plates with lids. One-hundred microliter cell suspensions containing 1500–5000 viable cells were plated into each well and incubated overnight prior to exposure with increasing concentrations of PF-309 for 3–5 days, dependent upon cell type. Media was removed and cells were fixed with cold 10% trichloroacetic acid for 30 min at 4°C. Cells were then washed with water and stained with 0.4% SRB (Fisher Sci., Pittsburgh, PA, USA) for 30 min at room temperature, washed again with 1% acetic acid, followed by stain solubilization with 10 mM tris at room temperature. The plate was then read on a plate reader (Biotek Synergy 2, Winooski, VT, USA) set at an absorbance wavelength of 565 nm. Cell proliferation curves were derived from the raw absorbance (OD) data.
(§2) Since PF-309 appeared to be a strong P-gp and BCRP substrates, we sought to evaluate if the transporters influenced sensitivity in vitro. We evaluated the sensitivity of CRC cell lines to PF-309 treatment in a panel of 27 lines. Cells were exposed to PF-309 at a range of concentrations for 72 h and cell content measured by SRB assay (see Pitts et al., [2013]). […]

T84 = assay: Cell proliferation assay, T84; assay type: cell-based; conditions: Homo sapiens; T84, PF-309 alone, 72 h; 1 uM was the maximum concentration used
Method: as §1, §2

RKO = assay: Cell proliferation assay, RKO; assay type: cell-based; conditions: Homo sapiens, 72 h, SRB assay
Method: as §1, §2

[1] = test system: Colo201 cell line xenograft; assay: CRC cell line xenograft efficacy, Colo201; assay type: in vivo, mice; conditions: 25 mg/kg orally twice daily, 14–28 days, end of study tumor volumes
Method: For cell line xenografts, CRC cells were harvested in exponential phase growth and resuspended in a 1:1 mixture of serum-free RPMI 1640 and Matrigel (BD Biosciences). Five to ten million cells per mouse were injected subcutaneously into the flank using a 23-gauge needle. Mice were monitored daily for signs of toxicity and were weighed twice weekly. Tumor size was evaluated twice per week by caliper measurements using the following formula: tumor volume = length × width^2 × 0.52. When tumors reached 200–300 mm^3 mice were randomized into two groups with at least 10 tumors per group. Mice were then treated for 14–28 days (until control tumor volume reach ∼1500 mm^3) with either vehicle control (0.5% methylcellulose), or PF-3758309 (25 mg/kg) twice daily by oral gavage.
Human tumor xenograft models were used to evaluate the efficacy of PF-309 in vivo. Eleven different CRC cell line tumor xenografts were treated with 25 mg/kg PF-309 twice daily by oral gavage for 14–28 days (until control tumor volumes reached ∼1500 mm^3). Tumor volumes were measured throughout the study and the % growth inhibition was calculated from the average end of study tumor volumes by:
% Growth Inhibition= (average control volume−average treated volume)/average control volume×100%

[2] = Tumor concentration 6 h after a single dose, P-gp tumor concentration study; assay type: in vivo, mice; conditions: single dose 25 mg/kg, 6 h post treatment; SW480 and HCT15 vs GEO and HCT116 xenografts
Method: Plasma and tumor samples were collected 1 h post treatment at the end of therapeutic studies or 6 h post treatment for P-gp tumor concentration studies. PF-309 was measured in mouse plasma and tumor tissue using a validated LC/MS/MS assay carried out by the University of Colorado Cancer Center Pharmacology Shared Resource. Positive ion electrospray ionization (ESI) mass spectra were obtained with a 3200 QTrap triple quadrupole mass spectrometer (Applied Biosystems Inc., Foster City, CA, USA) with a turboionspray source interfaced to an Agilent 1200 Series binary HPLC system (Agilent Technologies Inc., Santa Clara, CA, USA), and a HTC-PAL auto-sampler (LEAP Technologies, Carrboro, NC, USA). […]
Finally, we determined if the presence of P-gp affects tumor concentration. We evaluated the tumor concentration in two tumor xenograft lines with high ABCB1 gene expression (SW480 and HCT15) and two tumor xenografts with low ABCB1 gene expression (GEO and HCT116). Tumors from animals treated with a single dose of 25 mg/kg PF-309 were collected 6 h post treatment and concentrations analyzed. […] Tumors were also analyzed by western blot to confirm the presence or absence of P-gp, which agreed with the gene expression data (Figure 7B).

- IC50 (SW1116): > 1000 nM
- tumor concentration, high tumor P-gp vs low ABCB1 expression [2]: ∼four fold lower
SMILES: Cc1nc(Nc2n[nH]c3c2CN(C(=O)N[C@H](CN(C)C)c2ccccc2)C3(C)C)c2sccc2n1 [PF-309]
- IC50 (T84): > 1000 nM
- IC50 (RKO): 3.6 ± 0.1 nM
- % Growth inhibition [1]: 45%
